Test results taken from ChEMBL document CHEMBL3244077, “Sycnthesis of quinazoline analogues of folic acid modified at postion 10” (J Med Chem, 1977).

What was measured:
L1210 [1] = test: Antitumor activity against mouse L1210 cells allografted in mouse assessed as increase in host survival at 50 mg/kg, ip administered as single dose on day 1 following tumor implantation; format: functional; details: 24 h, route intraperitoneal
L1210 [2] = test: Antitumor activity against mouse L1210 cells allografted in mouse assessed as increase in host survival at 75 mg/kg, ip administered as single dose on day 1 following tumor implantation; format: functional; details: 24 h, route intraperitoneal
L1210 [3] = test: Antitumor activity against mouse L1210 cells allografted in mouse assessed as increase in host survival at 150 mg/kg, ip administered as single dose on day 1 following tumor implantation; format: functional; details: 24 h, route intraperitoneal
Mus musculus = test: Acute toxicity in mouse […] with mouse L1210 cells at 150 mg/kg, ip administered as single dose on day 1 following tumor implantation; format: organism-based; set-up: dose 150 mg/kg, route intraperitoneal; details: in vivo
L1210 [4] = test: Antitumor activity against mouse L1210 cells allografted in mouse assessed as increase in host survival at 25 mg/kg, ip administered as single dose on day 1 following tumor implantation; format: functional; details: 24 h, route intraperitoneal
L1210 [5] = test: Antitumor activity against mouse L1210 cells allografted in mouse assessed as increase in host survival at 100 mg/kg, ip administered as single dose on day 1 following tumor implantation; format: functional; details: 24 h, route intraperitoneal
L1210 [6] = test: Antitumor activity against mouse L1210 cells allografted in mouse assessed as increase in host survival at 200 mg/kg, ip administered as single dose on day 1 following tumor implantation; format: functional; details: 24 h, route intraperitoneal

Compound | survival at 50 mg/kg (L1210 [1]) | survival at 75 mg/kg (L1210 [2]) | survival at 150 mg/kg (L1210 [3]) | Activity (Mus musculus) | survival at 25 mg/kg (L1210 [4]) | survival at 100 mg/kg (L1210 [5]) | survival at 200 mg/kg (L1210 [6])
Nc1nc(O)c2cc(CCc3ccc(C(=O)N[C@@H](CCC(=O)O)C(=O)O)cc3)ccc2n1 | 14% | 18% | 23% | Non-toxic | – | – | –
CN(Cc1cnc2nc(N)nc(N)c2n1)c1ccc(C(=O)N[C@@H](CCC(=O)O)C(=O)O)cc1 [METHOTREXATE] | 61% | 48% | – | – | 68% | 81% | –
Nc1nc(O)c2cc(COc3ccc(C(=O)N[C@@H](CCC(=O)O)C(=O)O)cc3)ccc2n1 | – | 6% | 28% | Non-toxic | – | – | 14%
Nc1nc(O)c2cc(CSc3ccc(C(=O)N[C@@H](CCC(=O)O)C(=O)O)cc3)ccc2n1 | – | – | 22% | Non-toxic | – | 9% | –
